10 molecules from US10994015B2, “EGFR proteolysis targeting chimeric molecules and associated methods of use” (Arvinas Operations, Inc., priority 2016, dated 2021) can be followed below.

In assay [1] the target is EGFR Exon20NPG (Homo sapiens (Human), UniProt P00533, INS770NPG). Description: TR-FRET assay for ERBB kinases. Particulars: geometric mean if measured more than once. The class given is biochemical. In a few lines: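 Phosphorylation of fluorescein-labeled poly-GluTyr read as TR-FRET using Tb-pY20 antibody after EDTA stop, with 340 nm excitation. Kinase reaction ran 10 min at room temperature following 10 min compound pre-incubation; substrate mix held 3 mM ATP and 30 µM peptide before addition. Buffer was HEPES pH 7.5.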

The target in assay [2] is EGFR L858R/T790M double mutant (H1975) (Homo sapiens (Human), UniProt P00533, L858R/T790M). Description: EGFR protein degradation assay (Western blot). It is filed as cell-based. The settings on record: 72 hours, 300 nM to 10 nM. On the procedure: (§1) EGFR Protein Degradation assay
EGFR L858R/T790M double mutant (H1975), sequence (P00533 25-1210 T790M/L858R): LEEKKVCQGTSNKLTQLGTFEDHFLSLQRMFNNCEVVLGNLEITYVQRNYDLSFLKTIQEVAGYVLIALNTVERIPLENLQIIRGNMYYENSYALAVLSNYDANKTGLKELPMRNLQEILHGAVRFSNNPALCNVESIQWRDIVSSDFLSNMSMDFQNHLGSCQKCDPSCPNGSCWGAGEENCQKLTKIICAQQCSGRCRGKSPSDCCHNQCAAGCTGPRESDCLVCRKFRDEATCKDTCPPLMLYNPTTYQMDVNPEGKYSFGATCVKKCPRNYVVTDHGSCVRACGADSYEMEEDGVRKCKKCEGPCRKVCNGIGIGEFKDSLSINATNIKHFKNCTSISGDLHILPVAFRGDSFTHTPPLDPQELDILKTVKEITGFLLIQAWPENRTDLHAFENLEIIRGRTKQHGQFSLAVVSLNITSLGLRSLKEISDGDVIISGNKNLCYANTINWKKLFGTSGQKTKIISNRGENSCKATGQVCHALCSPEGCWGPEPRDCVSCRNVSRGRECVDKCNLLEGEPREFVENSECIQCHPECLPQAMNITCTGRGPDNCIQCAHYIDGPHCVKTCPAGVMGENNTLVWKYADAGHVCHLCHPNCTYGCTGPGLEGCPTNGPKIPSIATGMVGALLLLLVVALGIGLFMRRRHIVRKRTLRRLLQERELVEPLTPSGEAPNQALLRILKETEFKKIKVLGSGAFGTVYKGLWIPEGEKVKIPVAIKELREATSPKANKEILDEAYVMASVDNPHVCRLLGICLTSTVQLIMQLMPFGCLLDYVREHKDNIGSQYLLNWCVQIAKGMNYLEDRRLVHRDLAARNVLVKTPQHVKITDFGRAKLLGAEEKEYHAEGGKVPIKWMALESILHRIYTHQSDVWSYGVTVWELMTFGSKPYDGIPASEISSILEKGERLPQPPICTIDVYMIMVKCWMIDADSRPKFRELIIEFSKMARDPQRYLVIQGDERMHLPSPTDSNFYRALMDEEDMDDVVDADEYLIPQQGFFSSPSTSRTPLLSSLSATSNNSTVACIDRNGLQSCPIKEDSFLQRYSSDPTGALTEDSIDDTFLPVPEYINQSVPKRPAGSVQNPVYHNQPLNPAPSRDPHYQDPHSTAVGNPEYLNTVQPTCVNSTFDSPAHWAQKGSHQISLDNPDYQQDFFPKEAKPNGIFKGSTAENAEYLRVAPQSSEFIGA
Cells expressing the appropriate form of EGFR were seeded in 6-well plates (300,000 cells per well) and allowed to adhere to the plate overnight. […] To harvest cells, media was removed and cells were washed once with ice-cold phosphate-buffered saline (PBS) prior to the addition of 400 μl lysis buffer (Cell Signaling Technology) supplemented with a protease inhibitor cocktail (Thermo Scientific). Cells were scraped from the plate and the cell lysate transferred to an Eppendorf tube and then clarified by a single spin at 10 000 rpm for 10 minutes. The protein concentration of each lysate was determined (BCA kit, Thermo Scientific) prior to the addition of loading buffer (Invitrogen) and reducing agent (Invitrogen). 10 μg protein of each lysate was loaded on an SDS/PAGE gel and run at 165V for 2 hours. Following transfer to a PVDF membrane (iBlot2, Thermo Fisher Scientific), the membrane was blocked in Tris-buffered saline containing 0.1% Tween-20 (TBS-T) and supplemented with 5% powdered milk for 1 hour. Membranes were then probed with EGFR and tubulin (loaded control) primary antibodies in TBS-T containing 3% bovine serum albumin (BSA) overnight at 4° C. Membranes were washed thrice with TBS-T before incubation with secondary antibody in TBS-T containing 3% bovine serum albumin (BSA) and incubated for 1 hour at room temperature. Following 3 further washes with TBS, membrane proteins of interest were detected by enzyme-linked chemiluminescence (ECL) using a Chemidoc (Bio-Rad).

Assay [3] deals with EGFR WT (Homo sapiens (Human), UniProt P00533). Description: TR-FRET assay for ERBB kinases. Particulars: geometric mean if measured more than once. It is filed as biochemical. In a few lines:
(§2)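 Three-fold DMSO dilution series of each compound is diluted 10-fold into HEPES buffer (pH 7.5, NaCl, MgCl2, DTT, Pluronic). Enzyme is added for a 10 min pre-incubation. ATP/peptide mix (3 mM ATP, 30 uM substrate as added) starts a 10 min room-temperature reaction, halted with EDTA and Tb antibody.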

Assay [4] addresses EGFR L858R/T790M/C797S (Homo sapiens (Human), UniProt P00533, C797S/L858R/T790M). Briefly: TR-FRET assay for ERBB kinases. It is filed as biochemical. The settings on record: geometric mean if measured more than once. In a few lines: as §2
Assay [5] deals with EGFR L858R/T790M (Homo sapiens (Human), UniProt P00533, L858R/T790M). Briefly: TR-FRET assay for ERBB kinases. The class given is biochemical. The settings on record: geometric mean if measured more than once. In a few lines:
as §2

Assay [6] addresses EGFR L858R/T790M/C797S triple mutant (H520*) (Homo sapiens (Human), UniProt P00533, C797S/L858R/T790M). Description: EGFR protein degradation assay (Western blot). It is filed as cell-based. The settings on record: 72 hours, 300 nM to 10 nM. On the procedure: as §1
Cells were incubated overnight at 37° C., 5% CO2 prior to compound addition. A 10 mM compound stock in DMSO was serially diluted in DMSO to provide the following stock concentrations: 1, 0.3, 0.1, 0.03 and 0.01 mM. An appropriate volume of each compound dilution, together with a DMSO vehicle control, was added to media to provide a 2× compound solution. […] At the end of the compound treatment, cells were washed once with ice-cold phosphate-buffered saline (PBS) and treated with lysis solution (1× lysis buffer, Cell Signaling Technologies (CST #9803) supplemented with Piarce™ protease inhibitors, #A32953, Thermo Fisher Scientific, TFS). Lysates were collected and clarified of cell debris by spinning at 10K rpm for 10 minutes. A specific volume of supernatant was retrieved for protein quantification (Pierce™ BCA kit, TFS #23225) and for Western analysis. Loading buffer supplemented with EDTA and reducing agent was added to each supernatant. A specific volume of supernatant (determined by protein assay: […] loaded per sample) was loaded into a NuPAGE™ 4-12% Bis-Tris gel (TFS). Samples were run at 165V in MOPS running buffer for 2 hours and then transferred to PVDF blotting membrane using a dry blotting system (iBlot2, TFS). Membranes were blocked in Tris-buffered saline supplemented with Tween, 0.1% (TBST) containing 5% non-fat dry milk, (AmericanBio). Following block, membranes were washed once with TBST. […] Membranes were washed 3× with TBST prior to addition of secondary antibody (1:10 000, anti-rabbit HRP-linked, CST #7074) in TBST with 3% BSA and then incubated at room temperature for one hour. Membranes were then washed 3× with TBS and signal developed by exposure to developer (SuperSignal West Femto, TFS) for 5 minutes. Membranes were then immediately imaged using a BioRad Chemidoc.

A value given as a limit tells only on which side of the number the result lay.

EGFR L858R/T790M, sequence (P00533 25-1210 T790M/L858R): as above
EGFR L858R/T790M/C797S triple mutant (H520*), sequence (P00533 25-1210 T790M/C797S/L858R): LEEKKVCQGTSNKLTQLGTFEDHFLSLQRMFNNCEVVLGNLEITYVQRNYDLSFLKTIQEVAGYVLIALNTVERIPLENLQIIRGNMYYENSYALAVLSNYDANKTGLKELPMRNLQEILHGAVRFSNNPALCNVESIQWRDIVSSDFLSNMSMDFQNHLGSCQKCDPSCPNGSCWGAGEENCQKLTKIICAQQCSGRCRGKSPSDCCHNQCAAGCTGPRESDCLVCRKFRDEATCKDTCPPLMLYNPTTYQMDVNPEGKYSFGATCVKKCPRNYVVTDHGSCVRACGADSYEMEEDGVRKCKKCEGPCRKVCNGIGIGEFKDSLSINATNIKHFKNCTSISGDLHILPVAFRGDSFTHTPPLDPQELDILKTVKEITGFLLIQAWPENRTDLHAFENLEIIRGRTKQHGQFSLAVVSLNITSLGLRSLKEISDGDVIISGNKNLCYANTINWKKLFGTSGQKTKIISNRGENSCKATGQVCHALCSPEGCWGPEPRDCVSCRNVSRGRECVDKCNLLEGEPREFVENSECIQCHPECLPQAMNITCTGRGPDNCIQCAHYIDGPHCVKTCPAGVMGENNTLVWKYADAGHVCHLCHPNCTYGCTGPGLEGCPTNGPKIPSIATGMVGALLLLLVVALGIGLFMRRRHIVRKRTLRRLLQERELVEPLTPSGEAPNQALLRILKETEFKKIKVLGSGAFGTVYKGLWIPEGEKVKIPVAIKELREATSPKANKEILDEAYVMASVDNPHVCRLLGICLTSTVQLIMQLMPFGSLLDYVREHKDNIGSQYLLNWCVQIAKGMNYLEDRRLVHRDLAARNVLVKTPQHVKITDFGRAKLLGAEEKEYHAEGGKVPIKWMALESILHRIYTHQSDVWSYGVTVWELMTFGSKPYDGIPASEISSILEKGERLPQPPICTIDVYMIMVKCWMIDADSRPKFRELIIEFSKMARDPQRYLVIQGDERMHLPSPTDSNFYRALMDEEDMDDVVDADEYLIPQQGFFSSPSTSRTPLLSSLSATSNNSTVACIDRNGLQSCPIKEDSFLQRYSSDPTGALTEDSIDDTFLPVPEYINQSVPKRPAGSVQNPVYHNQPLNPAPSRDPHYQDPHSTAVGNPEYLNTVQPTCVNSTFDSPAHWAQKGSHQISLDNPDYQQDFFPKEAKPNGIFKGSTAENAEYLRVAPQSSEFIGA
EGFR L858R/T790M/C797S, sequence (P00533 25-1210 T790M/C797S/L858R): as above

Take `Cc1ncsc1-c1ccc(CNC(=O)[C@@H]2C[C@@H](O)CN2C(=O)[C@H](C(C)C)N2Cc3ccccc3C2=O)c(OCCOCCOCC#Cc2cccc3c2C(=O)N([C@@H](C(=O)Nc2nccs2)c2cc(F)ccc2O)C3)c1` (single isomer, unassigned) [Example 256]: the IC50 in assay [1] is 6.1 µM; in assay [3] it was 2.5 µM; in assay [4] it was 1.4 µM; in assay [5] it was 14 µM. Also, in assay [2], the “EGFR protein remaining, EGFR L858R/T790M double mutant” value is listed as “C (>80% EGFR protein remaining after 72 hours of incubation with the test compound at a concentration of 300 nM)”. For the same molecule, the “EGFR protein remaining, EGFR L858R/T790M/C797S triple mutant” value in assay [6] was “C (>80% EGFR protein remaining after 72 hours of incubation with the test compound at a concentration of 300 nM)”.
On to `Cc1ncsc1-c1ccc(CNC(=O)[C@@H]2C[C@@H](O)CN2C(=O)[C@H](C(C)C)N2Cc3ccccc3C2=O)c(OCCOCCOCC#Cc2cccc3c2C(=O)N([C@@H](C(=O)Nc2nccs2)c2cc(F)ccc2O)C3)c1` (single isomer, unassigned) [Example 257], for which the IC50 in assay [1] is over 30 µM; in assay [3] it was 5.7 µM; in assay [4], 2.7 µM; in assay [5] it was over 30 µM. Also, the “EGFR protein remaining, EGFR L858R/T790M double mutant” value in assay [2] is reported as “C (>80% EGFR protein remaining after 72 hours of incubation with the test compound at a concentration of 300 nM)”. Besides, the “EGFR protein remaining, EGFR L858R/T790M/C797S triple mutant” value in assay [6] was “C (>80% EGFR protein remaining after 72 hours of incubation with the test compound at a concentration of 300 nM)”.
As for `COC1CCN(c2nccc(Nc3cc4c(cn3)nc(COCCOCCN3CCN(CCCCc5ccc6c(c5)C(=O)N(C5CCC(=O)NC5=O)C6=O)CC3)n4C(C)C)n2)CC1` (stereo not drawn) [compound 87], the IC50 in assay [1] was 14 µM; in assay [3], over 30 µM; in assay [4], 3.3 µM; in assay [5], 15 µM. Further, in assay [2], the “EGFR protein remaining, EGFR L858R/T790M double mutant” value is recorded as “C (>80% EGFR protein remaining after 72 hours of incubation with the test compound at a concentration of 300 nM)”. The “EGFR protein remaining, EGFR L858R/T790M/C797S triple mutant” value in assay [6] is listed as “C (>80% EGFR protein remaining after 72 hours of incubation with the test compound at a concentration of 300 nM)”.
Consider `Cc1ncsc1-c1ccc([C@H](C)NC(=O)[C@H]2C[C@H](O)CN2C(=O)[C@@H](NC(=O)COCCCC#Cc2cccc3c2C(=O)N(C(C(=O)Nc2nccs2)c2cc(F)ccc2O)C3)C(C)(C)C)cc1` (stereo partly drawn) [compound 92], for which the IC50 in assay [1] is 3.1 µM; in assay [3], 9.8 µM; in assay [4] it was 1.1 µM; in assay [5] it was 6.2 µM. Moreover, the “EGFR protein remaining, EGFR L858R/T790M double mutant” value in assay [2] was “C (>80% EGFR protein remaining after 72 hours of incubation with the test compound at a concentration of 300 nM)”. In assay [6], the “EGFR protein remaining, EGFR L858R/T790M/C797S triple mutant” value is listed as “C (>80% EGFR protein remaining after 72 hours of incubation with the test compound at a concentration of 300 nM)”.
With `Cc1ncsc1-c1ccc([C@H](C)NC(=O)[C@H]2C[C@H](O)CN2C(=O)[C@@H](NC(=O)COCCCOCCCC#Cc2cccc3c2C(=O)N(C(C(=O)Nc2nccs2)c2cc(F)ccc2O)C3)C(C)(C)C)cc1` (stereo partly drawn) [compound 93], the IC50 in assay [1] stood at 3.3 µM; in assay [3] it was 11 µM; in assay [4] it was 0.53 µM; in assay [5], 3.5 µM. Further, the “EGFR protein remaining, EGFR L858R/T790M double mutant” value in assay [2] is “C (>80% EGFR protein remaining after 72 hours of incubation with the test compound at a concentration of 300 nM)”. Also, the “EGFR protein remaining, EGFR L858R/T790M/C797S triple mutant” value in assay [6] was “C (>80% EGFR protein remaining after 72 hours of incubation with the test compound at a concentration of 300 nM)”.
For the molecule `O=C1CCC(N2C(=O)c3ccc(N4CCN(CCCOCCCC#Cc5cccc6c5C(=O)N(C(C(=O)Nc5nccs5)c5cc(F)ccc5O)C6)CC4)cc3C2=O)C(=O)N1` (stereo not drawn) [compound 95], the IC50 in assay [1] amounted to 3.3 µM; in assay [3] it was 4.2 µM; in assay [4], 2.2 µM; in assay [5], 6.7 µM. Further, the “EGFR protein remaining, EGFR L858R/T790M double mutant” value in assay [2] is on record as “C (>80% EGFR protein remaining after 72 hours of incubation with the test compound at a concentration of 300 nM)”. Further, the “EGFR protein remaining, EGFR L858R/T790M/C797S triple mutant” value in assay [6] is on record as “C (>80% EGFR protein remaining after 72 hours of incubation with the test compound at a concentration of 300 nM)”.
Consider `Cc1ncsc1-c1ccc(CNC(=O)[C@@H]2C[C@@H](O)CN2C(=O)[C@@H](NC(=O)COCCOCCOCCOCC#Cc2cccc3c2C(=O)N(C(C(=O)Nc2nccs2)c2cc(F)ccc2O)C3)C(C)(C)C)cc1` (stereo partly drawn) [compound 254], for which the IC50 in assay [1] amounted to 5.7 µM; in assay [3], 1.1 µM; in assay [4], 0.1 µM; in assay [5], 1 µM. In assay [2], the “EGFR protein remaining, EGFR L858R/T790M double mutant” value was “C (>80% EGFR protein remaining after 72 hours of incubation with the test compound at a concentration of 300 nM)”. Moreover, the “EGFR protein remaining, EGFR L858R/T790M/C797S triple mutant” value in assay [6] is “C (>80% EGFR protein remaining after 72 hours of incubation with the test compound at a concentration of 300 nM)”.
As to `Cc1ncsc1-c1ccc(CNC(=O)[C@@H]2C[C@@H](O)CN2C(=O)[C@@H](NC(=O)COCCOCCOCCOCCOCC#Cc2cccc3c2C(=O)N(C(C(=O)Nc2nccs2)c2cc(F)ccc2O)C3)C(C)(C)C)cc1` (stereo partly drawn) [compound 255], the IC50 in assay [1] was determined as 4.7 µM; in assay [3], 0.58 µM; in assay [4] it was 0.14 µM; in assay [5], 0.83 µM. For the same molecule, in assay [2], the “EGFR protein remaining, EGFR L858R/T790M double mutant” value is recorded as “C (>80% EGFR protein remaining after 72 hours of incubation with the test compound at a concentration of 300 nM)”. Further, in assay [6], the “EGFR protein remaining, EGFR L858R/T790M/C797S triple mutant” value was “B (≤80% and >50% EGFR protein remaining after 72 hours of incubation with the test compound at a concentration between 300 nM and 10 nM)”.
Turning to `Cc1ncsc1-c1ccc(CNC(=O)[C@@H]2C[C@@H](O)CN2C(=O)[C@H](C(C)C)N2Cc3ccccc3C2=O)c(OCCOCCOCCOCC#Cc2cccc3c2C(=O)N([C@@H](C(=O)Nc2nccs2)c2cc(F)ccc2O)C3)c1` [compound 258], the concentration for half-maximal inhibition (IC50) turned out to be 4.9 µM in assay [1], 1.7 µM in assay [3], 4 µM in assay [4] and 5.9 µM in assay [5]. Besides, the “EGFR protein remaining, EGFR L858R/T790M double mutant” value in assay [2] was “C (>80% EGFR protein remaining after 72 hours of incubation with the test compound at a concentration of 300 nM)”. In addition, the “EGFR protein remaining, EGFR L858R/T790M/C797S triple mutant” value in assay [6] was “C (>80% EGFR protein remaining after 72 hours of incubation with the test compound at a concentration of 300 nM)”.
In the case of `Cc1ncsc1-c1ccc(CNC(=O)[C@@H]2C[C@@H](O)CN2C(=O)[C@H](C(C)C)N2Cc3ccccc3C2=O)c(OCCOCCOCCOCCOCC#Cc2cccc3c2C(=O)N([C@@H](C(=O)Nc2nccs2)c2cc(F)ccc2O)C3)c1` [compound 259], the IC50 in assay [1] amounted to 2.1 µM; in assay [3] it was 2.1 µM; in assay [4] it was 0.55 µM; in assay [5] it was 3.1 µM. In addition, the “EGFR protein remaining, EGFR L858R/T790M double mutant” value in assay [2] is reported as “C (>80% EGFR protein remaining after 72 hours of incubation with the test compound at a concentration of 300 nM)”. Also, the “EGFR protein remaining, EGFR L858R/T790M/C797S triple mutant” value in assay [6] is on record as “C (>80% EGFR protein remaining after 72 hours of incubation with the test compound at a concentration of 300 nM)”.
